Values of other authors, collected in patent publication US20130237476A1, “ADIPOSE TISSUE TARGETED PEPTIDES” (ABLARIS THERAPEUTICS INC., priority 2012, published 2013).
Where no end group is shown, it is not given here. [ ]: non-standard residue; d: D form. Ex = not defined here

Legend:
prohibitin = conditions: Kolonin et al., Nat Med 2004; prohibitin expressed in adipose tissue
[1] = diastereomeric peptide with 5th and 9th residues as L-analogs; comparator not stated
[2] = tested on: visceral adipose tissue (white fat)

For CKGGRAKDC [adipose targeting peptide], the association with prohibitin (prohibitin) is listed as “associates with prohibitin”.
In the case of “D,L-(KExAKExAK)2 (K[Ex]AK[Ex]AKK[Ex]AK[Ex]AK; reading uncertain; also: D/L diastereomeric residues, positions not given here) [diasteriomeric peptide in which the 5th and 9th residues were replaced with L-analogs to disrupt alpha helicity]”, the hemolytic activity [1] is given as “greatly reduced”.
In the case of “CKGGRAKDC-GG-D(KLAKLAKKLAKLAK) (CKGGRAKDCGG[dK][dL][dA][dK][dL][dA][dK][dK][dL][dA][dK][dL][dA][dK]; cysteine pairing not given here) [ABL-1, targeting peptide operably linked to an apoptotic therapeutic peptide]”, the obesity reversal ([2]; animal models, after resorption of established white fat) is listed as “rapid obesity reversal” and the “ablation of visceral adipose tissue” value ([2]; targets prohibitin in adipose vascular endothelial cells) is listed as “cause ablation of visceral adipose tissue”.
